Measured values reported in publication PMC5428020 (Chemical Science, 2017).

Experiment: Water solubility as observed during handling, NMR and crystallization
Format: physicochemical

**Q.** Which “solubility in water (in words)” value does the source give for Fmoc–Q^SO3H–OH [Compound 14] here?
**A.** The value was “surprisingly high”.
